Values quoted from earlier work in patent US20170246115A1, “MEDICINE” (KOWA COMPANY, LTD., priority 2012, published 2017).

Conditions: amorphous form formed on drying crystal form A at a water content of 4% or lower

storage stability: considerably poor storage stability
SMILES: O=C([O-])C[C@H](O)C[C@H](O)/C=C/c1c(C2CC2)nc2ccccc2c1-c1ccc(F)cc1.O=C([O-])C[C@H](O)C[C@H](O)/C=C/c1c(C2CC2)nc2ccccc2c1-c1ccc(F)cc1.[Ca+2] [amorphous pitavastatin calcium]
